The experiment concerns Akt phosphorylation on Ser473. As to the kind of experiment: Inhibition of activation of Akt kinase (phospho-Akt Ser473 assay in RBL-2H3 cells). The class given is cell-based, rat. The conditions noted are these: IgE and antigen for 15 min. An excerpt:
The mast cell degranulation assay using the RBL-2H3 cell line (see example 5) was also used to determine the status of the PI3K/Akt axis. Activation of PI3K leads to production of PIP3 on the cytosolic side of the lipid bilayer. Akt is recruited to the PIP3 domain and subsequently activated by phosphorylation on residues Ser473 and Thr308. (Franke et al., Cell 81:727-736, (1995)). Once recruited to the membrane, it is phosphorylated and activated by other kinases (Hemmings, Science 275:628-630 (1997); Hemmings, Science 276:534 (1997); Downward, Science 279:673-674 (1998); Alessi et al., EMBO J. 15:6541-6551 (1996)). Western blotting of the phosphorylated Ser473 residue on Akt (phospho-Akt Ser473) is widely used to assess the level of activation of the PI3K/Akt axis.
All buffers and solutions used for the phosphor-Akt Ser473 assay were from Meso Scale Discovery. Tris Lysis Buffer consisted of 150 mM NaCl, 20 mM Tris, pH 7.5, 1 mM EDTA, 1 mM EGTA and 1% Triton-X-100. Complete Tris Lysis Buffer was prepared prior to use by addition of protease inhibitor, phosphatase inhibitors and PMSF. […] Read Buffer T was used according to manufacturer's instructions. […]
Protein assay: protein concentration was determined using the BCA (bicinchoninic acid) Protein Assay kit according to the manufacturer's instructions. […] Plates were cooled to room temperature for 5 min and absorbance at 562 nm was measured in a multi-mode plate reader. Protein concentrations were calculated using FlexStation 3 software (SoftMax Pro version 5.3). Protein concentration of lysates was determined from a standard curve (BSA) using a linear curve fit.
Phosphoprotein assay: protein phosphorylation was determined using the MULTI-SPOT® Assay System (Mesa Scale Discovery), providing simultaneous detection of phosphorylated and total proteins. […] The optimal amount of protein was determined at 5 μg lysate per well for ERK½ and 10 μg/well for phospho-Akt Ser473. […] After a final four washes with Tris Wash Buffer 150 μl/well, Read Buffer T was added, and plates read on a SECTOR Imager 6000 plate reader. […]

Take `CCCCCCCCCCCCCC[N+](C)(C)CC(=O)N(C)C[C@H](O)[C@@H](O)[C@H](O)[C@H](O)CO` [Compound 1a, N-(2-(Dimethyl(tetradecyl)ammonio)acetyl)-N-methyl-D-glucamine chloride]: the “Level of phospho-Akt Ser473” value came to 81.8 ± 42.5 % positive control (1 μM), 22.6 ± 15.7 % positive control (5 μM) and 6.8 ± 1.8 % positive control (25 μM).

These data come from patent US10143668B2, “Hydroxy-substituted amino and ammonium derivatives and their medical use” (GRI BIO, INC., priority 2011, dated 2018).
